Measurements from paper PMC11643744, “New Conjugates of Vancomycin with Cell-Penetrating Peptides—Synthesis, Antimicrobial Activity, Cytotoxicity, and BBB Permeability Studies” (Molecules, 2024).
In brackets after ≈: the same amount, converted by molar mass.

Legend:
[1] = tested on: E. coli ATCC 25922; assay: microbe, parasite or virus in culture; assay type: cell-based, Escherichia coli; conditions: reference strain
Description: (§1) The antimicrobial activity of the synthesized compounds was evaluated against four reference bacterial strains: Staphylococcus aureus (ATCC 29213), Enterococcus faecalis (ATCC 29212), Escherichia coli (ATCC 25922), and Pseudomonas aeruginosa (ATCC 27853), which are commonly used for determining antibacterial activity. In addition, two clinical strains, S. aureus (MRSA) and E. faecium (VRE), were included in the study. The bacterial strains were inoculated from Selectrol discs (Biomaxima SA, Lublin, Poland) onto blood agar (Graso Biotech, Starogard Gdański, Poland) and incubated at 37 °C for 24 h. Before testing, the strains were cultured aerobically on blood agar at 37 °C for 24 h.
(§2) The susceptibility of microorganisms to the synthesized compounds was determined using the broth microdilution assay, following the guidelines outlined by CLSI [30]. The final concentrations of the tested compounds in Mueller–Hinton broth, in 96-well plates (VWR International Sp. z o.o., Gdańsk, Poland), ranged from 0.125 to 256 mg/L. To prepare the bacterial suspension, bacteria from the overnight culture on blood agar were diluted in sterile 0.9% NaCl to achieve a turbidity equivalent to a 0.5 McFarland standard. The adjusted inoculum suspension was further diluted in Mueller–Hinton broth so that after inoculation, each well contained approximately 5 × 10^5 CFU/mL. Aliquots (5 µL) of bacterial suspension were added to each solution. The sterility control (containing the broth) and the growth control (containing the reference strain in broth without the tested compound) were also set up. The antibiotics vancomycin and gentamicin were used as a control. The plates were incubated at 37 °C under aerobic conditions. The results are expressed as the MIC of the tested compounds, which was defined as the lowest concentration at which no visible growth of bacteria (no turbidity) was observed. The assay was performed in triplicate.

[2] = tested on: E. faecalis ATCC 29212; assay: microbe, parasite or virus in culture; assay type: cell-based, Enterococcus faecalis; conditions: reference strain; for MIC: read-out: MIC E. faecalis ATCC 29212
Description: as §1, §2

[3] = tested on: S. aureus MRSA (clinical isolate no 203); assay: microbe, parasite or virus in culture; assay type: cell-based, Staphylococcus aureus; conditions: methicillin-resistant clinical isolate no 203; read-out: MIC S. aureus MRSA
Description: as §1, §2

[4] = tested on: S. aureus ATCC 29213; assay: microbe, parasite or virus in culture; assay type: cell-based, Staphylococcus aureus; conditions: reference strain; for MIC: read-out: MIC S. aureus ATCC 29213
Description: as §1, §2

[5] = PAMPA-BBB assay; conditions: 20 h incubation; for R, mass retention: mean ± SEM; for Papp at 20 h, 20 µM: pig, PAMPA, pH 7.4, Pe, effective permeability coefficient, pH 7.4, mean ± SEM
Source text: This assay utilized a 96-well plate assembly consisting of a filter plate pre-coated with polar brain lipids (donor plate) and a receiver plate (acceptor plate). The phospholipid mixture used to coat the membrane was extracted from porcine polar brain lipids, with the following composition: 12.6% phosphatidylcholine, 33.1% phosphatidylethanolamine, 18.5% phosphatidylserine, 4.1% phosphatidylinositol, 0.8% phosphatidic acid, and 30.9% of other compounds, including cerebrosides, sulfatides, and pigments.
In each well of the donor filtration plate (Multiscreen Filter Plate, PVDF with a pore size of 0.45 µm), 5 µL of the phospholipid mixture in n-dodecane (20 mg/mL) was carefully applied to form the artificial membrane. After coating, 200 µL of phosphate-buffered saline (PBS at pH 7.4) containing 5% dimethyl sulfoxide (DMSO) as a co-solvent, and the test compound (at a concentration of 20 µM) was added to each well of the donor plate (in triplicate). […] The plate lid was then replaced and the resulting assembled donor–acceptor plates were incubated at room temperature for 20 h. After this time, the donor plate was removed and solutions from each well of both acceptor and donor plates were collected for further analysis. The concentrations of the tested compounds were determined by LC-MS. The analysis was conducted by UHPLC-MS system (Shimadzu Nexera X2 with LCMS-2020 detector) using a ReproSil Pure 120 ODS-3 column (Dr. Maisch GmbH, 100 × 2 mm, 2.4 µm particle size) with several gradients of ACN with 0.1% FA and 0.05% TFA at a flow rate of 0.3 mL/min. The eluted solution was monitored by an ESI-MS detector operated in a selected ion monitoring mode (SIM). […] CE=CD×VD+CA×VA/VD+VA

[6] = tested on: normal human fibroblasts, BJ line (CRL-2522); assay: Neutral red cytotoxicity assay; conditions: 24 h
Description: Normal human fibroblasts, BJ line (CRL-2522™), Eagle’s Minimum Essential Medium (EMEM), and fetal bovine serum (FBS) were obtained from ATCC (Manassas, VA, USA). Cells were grown following ATCC guidelines in an EMEM medium supplemented with 10% FBS at 37 °C in a humidified atmosphere of 95% air and 5% CO2 in a HeraCell 150 incubator (Heraeus, Hanau, Germany).
The assay was performed as per previously published protocols with slight modifications. In brief, BJ cells were plated in 96-well tissue culture plates (Nest Scientific Biotechnology, Wuxi, China) at a density of 6 × 10^3 cells per well and allowed to attach for 24 h in EMEM supplemented with 10% FBS. After the incubation period, the medium was removed, and 10% dimethyl sulfoxide (DMSO)-treated cells (Sigma-Aldrich, St. Louis, MO, USA) were used as a positive control, while nontreated cells served as a negative control.
The cells were treated with peptides suspended in EMEM medium supplemented with 10% FBS and incubated for 24 h at 37 °C in a humidified atmosphere of 95% air and 5% CO2. After the incubation, the supernatants were discarded and replaced with 100 µL of non-supplemented EMEM containing 0.33% neutral red (Sigma-Aldrich) diluted 1:40. The cells were incubated for an additional 2 h at 37 °C. Following incubation, the neutral red medium was removed, and the cells were washed with 100 µL of phosphate-buffered saline (PBS) per well.
To extract the dye into the solution, the cells were treated with 150 µL of a solution containing 50% ethanol (Alchem, Torun, Poland), 49% distilled H2O, and 1% acetic acid (Alchem, Torun, Poland) and incubated under shaking at 37 °C for 10 min. Absorbance was measured at 540 nm using a Synergy H1 plate reader (BioTek Instruments, Winooski, VT, USA). The assay was performed in triplicate to ensure reproducibility.

[7] = tested on: E. faecium VRE (clinical isolate UCK 7979384); assay: microbe, parasite or virus in culture; assay type: cell-based; conditions: vancomycin-resistant clinical isolate UCK 7979384; read-out: MIC E. faecium VRE
Description: as §1, §2

Structure (SMILES)	MIC [1] [µM]	MIC [2] [µM]	MIC [3] [µM]	MIC [4] [µM]	R, mass retention [5] [%]	Papp at 20 h, 20 µM [5] [×10⁻⁶ cm/s]	concentration above which cytotoxicity was shown [6]	MIC E. coli ATCC 25922 [1] [µg/mL]	MIC E. faecalis ATCC 29212 [2] [µg/mL]	MIC S. aureus ATCC 29213 [4] [µg/mL]	effect on cell viability ([6]; across the tested concentration range)	MIC [7] [µM]
CC[C@H](C)[C@H](NC(=O)[C@H](CCCCN)NC(=O)[C@H](CCCCN)NC(=O)[C@H](C)NC(=O)[C@H](CC(C)C)NC(=O)[C@H](C)NC(=O)[C@H](C)NC(=O)[C@H](CC(C)C)NC(=O)[C@H](C)NC(=O)[C@H](CCCCN)NC(=O)[C@H](CC(C)C)NC(=O)[C@H](CC(N)=O)NC(=O)[C@@H](NC(=O)[C@H](CCCCN)NC(=O)CNC(=O)[C@H](CC(C)C)NC(=O)[C@H](CC(C)C)NC(=O)[C@H](Cc1ccc(O)cc1)NC(=O)CNC(=O)[C@H](C)N)[C@@H](C)CC)C(=O)N[C@@H](CC(C)C)C(N)=O [compound 1, TP10]	14.7 (≈ 32.1 µg/mL)	29.3 (≈ 63.9 µg/mL)	3.67 (≈ 8.01 µg/mL)	14.7 (≈ 32.1 µg/mL)	–	–	–	–	–	–	–	–
CC[C@H](C)[C@H](NC(=O)[C@H](CCCCN)NC(=O)[C@H](CCCCN)NC(=O)[C@H](C)NC(=O)[C@H](CC(C)C)NC(=O)[C@H](C)NC(=O)[C@H](C)NC(=O)[C@H](CC(C)C)NC(=O)[C@H](C)NC(=O)[C@H](CCCCN)NC(=O)[C@H](CC(C)C)NC(=O)[C@H](CC(N)=O)NC(=O)[C@@H](NC(=O)[C@H](CCCCN)NC(=O)CNC(=O)[C@H](CC(C)C)NC(=O)[C@H](CC(C)C)NC(=O)[C@H](Cc1ccc(O)cc1)NC(=O)CNC(=O)[C@H](C)NC(=O)c1cn(CCOCCOCCOCCNC(=O)[C@H]2NC(=O)[C@H]3NC(=O)[C@H](NC(=O)[C@@H]4NC(=O)[C@H](CC(N)=O)NC(=O)[C@H](NC(=O)[C@@H](CC(C)C)NC)[C@H](O)c5ccc(c(Cl)c5)Oc5cc4cc(c5O[C@@H]4O[C@H](CO)[C@@H](O)[C@H](O)[C@H]4O[C@H]4C[C@](C)(N)[C@H](O)[C@H](C)O4)Oc4ccc(cc4Cl)[C@H]3O)c3ccc(O)c(c3)-c3c(O)cc(O)cc32)nn1)[C@@H](C)CC)C(=O)N[C@@H](CC(C)C)C(N)=O [compound 2]	–	–	–	–	10.0 ± 0.6	0.187	above 64 µg/mL	–	–	–	–	–
CN[C@H](CC(C)C)C(=O)N[C@H]1C(=O)N[C@@H](CC(N)=O)C(=O)N[C@H]2C(=O)N[C@H]3C(=O)N[C@H](C(=O)N[C@H](C(=O)NCCOCCOCCOCCn4cc(C(=O)N[C@@H](Cc5ccc(O)cc5)C(=O)N[C@@H](C)C(=O)N[C@@H](CCCNC(=N)N)C(=O)N[C@@H](C)C(=O)N[C@@H](C)C(=O)N[C@@H](C)C(=O)N[C@@H](CCCNC(=N)N)C(=O)N[C@@H](CCC(N)=O)C(=O)N[C@@H](C)C(=O)N[C@@H](CCCNC(=N)N)C(=O)N[C@@H](C)C(N)=O)nn4)c4cc(O)cc(O)c4-c4cc3ccc4O)[C@H](O)c3ccc(c(Cl)c3)Oc3cc2cc(c3O[C@@H]2O[C@H](CO)[C@@H](O)[C@H](O)[C@H]2O[C@H]2C[C@](C)(N)[C@H](O)[C@H](C)O2)Oc2ccc(cc2Cl)[C@H]1O [compound 10]	–	–	–	–	2.0 ± 0.6	0.01 ± 0.003	above 16 µg/mL	–	–	–	–	–
CN[C@H](CC(C)C)C(=O)N[C@H]1C(=O)N[C@@H](CC(N)=O)C(=O)N[C@H]2C(=O)N[C@H]3C(=O)N[C@H](C(=O)N[C@H](C(=O)O)c4cc(O)cc(O)c4-c4cc3ccc4O)[C@H](O)c3ccc(c(Cl)c3)Oc3cc2cc(c3O[C@@H]2O[C@H](CO)[C@@H](O)[C@H](O)[C@H]2O[C@H]2C[C@](C)(NC(=O)CCOCCOCCOCCOCCn3cc(C(=O)N[C@@H](Cc4ccc(O)cc4)C(=O)N[C@@H](C)C(=O)N[C@@H](CCCNC(=N)N)C(=O)N[C@@H](C)C(=O)N[C@@H](C)C(=O)N[C@@H](C)C(=O)N[C@@H](CCCNC(=N)N)C(=O)N[C@@H](CCC(N)=O)C(=O)N[C@@H](C)C(=O)N[C@@H](CCCNC(=N)N)C(=O)N[C@@H](C)C(N)=O)nn3)[C@H](O)[C@H](C)O2)Oc2ccc(cc2Cl)[C@H]1O [compound 11]	–	–	–	–	32.7 ± 0.9	0.066 ± 0.007	> 64 µg/mL	–	–	–	–	–
CN[C@H](CC(C)C)C(=O)N[C@H]1C(=O)N[C@@H](CC(N)=O)C(=O)N[C@H]2C(=O)N[C@H]3C(=O)N[C@H](C(=O)N[C@H](C(=O)NCCSSCCn4cc(C(=O)N[C@@H](CCCNC(=N)N)C(=O)N[C@@H](CCCNC(=N)N)C(=O)N[C@@H](CCCNC(=N)N)C(=O)N[C@@H](CCCNC(=N)N)C(=O)N[C@@H](CCCNC(=N)N)C(=O)N[C@@H](CCCNC(=N)N)C(=O)N[C@@H](CCCNC(=N)N)C(=O)N[C@@H](CCCNC(=N)N)C(=O)N[C@@H](CCCNC(=N)N)C(N)=O)nn4)c4cc(O)cc(O)c4-c4cc3ccc4O)[C@H](O)c3ccc(c(Cl)c3)Oc3cc2cc(c3O[C@@H]2O[C@H](CO)[C@@H](O)[C@H](O)[C@H]2O[C@H]2C[C@](C)(N)[C@H](O)[C@H](C)O2)Oc2ccc(cc2Cl)[C@H]1O [compound 17]	>83	2.59 (≈ 7.99 µg/mL)	–	1.30 (≈ 4.01 µg/mL)	20.7 ± 0.3	–	–	>256	8 (≈ 2.59 µM)	4 (≈ 1.3 µM)	–	–
C#CC(=O)N[C@@H](Cc1ccc(O)cc1)C(=O)NCC(=O)N[C@@H](CCCNC(=N)N)C(=O)N[C@@H](CCCCN)C(=O)N[C@@H](CCCCN)C(=O)N[C@@H](CCCNC(=N)N)C(=O)N[C@@H](CCCNC(=N)N)C(=O)N[C@@H](CCC(N)=O)C(=O)N[C@@H](CCCNC(=N)N)C(=O)N[C@@H](CCCNC(=N)N)C(=O)N[C@@H](CCCNC(=N)N)C(N)=O [compound 4]	79.5 (≈ 128 µg/mL)	159 (≈ 256 µg/mL)	19.9 (≈ 32.1 µg/mL)	4.97 (≈ 8.01 µg/mL)	3.3 ± 0.7	–	–	–	–	–	did not significantly affect cell viability	19.9 (≈ 32.1 µg/mL)
C#CC(=O)N[C@@H](CCCNC(=N)N)C(=O)N[C@@H](CCCNC(=N)N)C(=O)N[C@@H](CCCNC(=N)N)C(=O)N[C@@H](CCCNC(=N)N)C(=O)N[C@@H](CCCNC(=N)N)C(=O)N[C@@H](CCCNC(=N)N)C(=O)N[C@@H](CCCNC(=N)N)C(=O)N[C@@H](CCCNC(=N)N)C(=O)N[C@@H](CCCNC(=N)N)C(N)=O [compound 14]	43 (≈ 63.4 µg/mL)	87 (≈ 128 µg/mL)	2.71 (≈ 4 µg/mL)	21.7 (≈ 32 µg/mL)	8.0 ± 1.2	–	–	–	–	–	–	21.7 (≈ 32 µg/mL)
